# Experimental data: patent US8680012B2, “4-phenyl-pyrane-3,5-diones,4-phenyl-thiopyrane-3,6-diones and cyclohexanetriones as novel herbicides” (Syngenta Crop Protection LLC, priority 2006, dated 2014)
# Tested on: Amaranthus retroflexus (AMARE)
# Test: Example B post-emergence herbicidal activity, glasshouse pot test
# Type: in vivo
# Conditions: 312 h, rate 250 g/ha, evaluated after 13 days, read-out: Post-emergence activity AMARE (100=total damage to plant; 0=no damage to plant)
# Method in brief: (§1)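 Damage rated 13 days after treatment on a 0 (no damage) to 100 (total damage) scale. Spray of acetone/water (50:50) with 0.5% Tween 20 went onto soil-sown pots at day 1 (pre-emergence) or day 8 (post-emergence); glasshouse kept at 24/16 °C, 14 h light, 65% humidity.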
row,SMILES,pest or weed control at 250 g/ha
1,CCc1ccc(-c2ccc(Cl)c(Cl)c2)cc1C1=C(O)[C@]2(C)O[C@@H](CC2COC)C1=O (stereo partly shown) [Compound A-130],0%
2,CCc1ccc(-c2ccc(Cl)c(Cl)c2)cc1C1=C(O)[C@H]2CC[C@H](O2)C1=O [Compound A-132],0%
3,CCc1ccc(-c2ccc(Cl)cc2Cl)cc1C1=C(O)[C@]2(C)O[C@@H](CC2COC)C1=O (stereo partly shown) [Compound A-133],70%
4,CCc1ccc(-c2ccc(Cl)c(OC)c2)cc1C1=C(O)C(C)(C)OC(C)(C)C1=O [Compound A-135],0%

# Tested on: Avena fatua (AVEFA)
# Test: as above
# Type: in vivo
# Conditions: 312 h, rate 250 g/ha, evaluated after 13 days, read-out: Post-emergence activity AVEFA (100=total damage to plant; 0=no damage to plant)
# Method in brief: as §1
row,SMILES,pest or weed control at 250 g/ha
1,CCc1ccc(-c2ccc(Cl)c(Cl)c2)cc1C1=C(O)[C@]2(C)O[C@@H](CC2COC)C1=O (stereo partly shown) [Compound A-130],40%
2,CCc1ccc(-c2ccc(Cl)c(Cl)c2)cc1C1=C(O)[C@H]2CC[C@H](O2)C1=O [Compound A-132],30%
3,CCc1ccc(-c2ccc(Cl)cc2Cl)cc1C1=C(O)[C@]2(C)O[C@@H](CC2COC)C1=O (stereo partly shown) [Compound A-133],80%
4,CCc1ccc(-c2ccc(Cl)c(OC)c2)cc1C1=C(O)C(C)(C)OC(C)(C)C1=O [Compound A-135],100%

# Tested on: Alopecurus myosuroides (ALOMY)
# Test: as above
# Type: in vivo
# Conditions: 312 h, rate 250 g/ha, evaluated after 13 days, read-out: Post-emergence activity ALOMY (100=total damage to plant; 0=no damage to plant)
# Method in brief: as §1
row,SMILES,pest or weed control at 250 g/ha
1,CCc1ccc(-c2ccc(Cl)c(Cl)c2)cc1C1=C(O)[C@]2(C)O[C@@H](CC2COC)C1=O (stereo partly shown) [Compound A-130],40%
2,CCc1ccc(-c2ccc(Cl)c(Cl)c2)cc1C1=C(O)[C@H]2CC[C@H](O2)C1=O [Compound A-132],20%
3,CCc1ccc(-c2ccc(Cl)cc2Cl)cc1C1=C(O)[C@]2(C)O[C@@H](CC2COC)C1=O (stereo partly shown) [Compound A-133],20%
4,CCc1ccc(-c2ccc(Cl)c(OC)c2)cc1C1=C(O)C(C)(C)OC(C)(C)C1=O [Compound A-135],100%

# Tested on: Setaria faberi (SETFA)
# Test: as above
# Type: in vivo
# Conditions: 312 h, rate 250 g/ha, evaluated after 13 days, read-out: Post-emergence activity SETFA (100=total damage to plant; 0=no damage to plant)
# Method in brief: as §1
row,SMILES,pest or weed control at 250 g/ha
1,CCc1ccc(-c2ccc(Cl)c(Cl)c2)cc1C1=C(O)[C@]2(C)O[C@@H](CC2COC)C1=O (stereo partly shown) [Compound A-130],100%
2,CCc1ccc(-c2ccc(Cl)c(Cl)c2)cc1C1=C(O)[C@H]2CC[C@H](O2)C1=O [Compound A-132],90%
3,CCc1ccc(-c2ccc(Cl)cc2Cl)cc1C1=C(O)[C@]2(C)O[C@@H](CC2COC)C1=O (stereo partly shown) [Compound A-133],100%
4,CCc1ccc(-c2ccc(Cl)c(OC)c2)cc1C1=C(O)C(C)(C)OC(C)(C)C1=O [Compound A-135],100%

# Tested on: Echinochloa crus-galli (ECHCG)
# Test: as above
# Type: in vivo
# Conditions: 312 h, rate 250 g/ha, evaluated after 13 days, read-out: Post-emergence activity ECHCG (100=total damage to plant; 0=no damage to plant)
# Method in brief: as §1
row,SMILES,pest or weed control at 250 g/ha
1,CCc1ccc(-c2ccc(Cl)c(Cl)c2)cc1C1=C(O)[C@]2(C)O[C@@H](CC2COC)C1=O (stereo partly shown) [Compound A-130],100%
2,CCc1ccc(-c2ccc(Cl)c(Cl)c2)cc1C1=C(O)[C@H]2CC[C@H](O2)C1=O [Compound A-132],70%
3,CCc1ccc(-c2ccc(Cl)cc2Cl)cc1C1=C(O)[C@]2(C)O[C@@H](CC2COC)C1=O (stereo partly shown) [Compound A-133],100%
4,CCc1ccc(-c2ccc(Cl)c(OC)c2)cc1C1=C(O)C(C)(C)OC(C)(C)C1=O [Compound A-135],100%

# Tested on: Amaranthus retroflexus (AMARE)
# Test: Example B pre-emergence herbicidal activity, glasshouse pot test
# Type: in vivo
# Conditions: 312 h, rate 250 g/ha, evaluated after 13 days, read-out: Pre-emergence activity AMARE (100=total damage to plant; 0=no damage to plant)
# Method in brief: as §1
row,SMILES,pest or weed control at 250 g/ha
1,CCc1ccc(-c2ccc(Cl)c(Cl)c2)cc1C1=C(O)[C@]2(C)O[C@@H](CC2COC)C1=O (stereo partly shown) [Compound A-130],0%
2,CCc1ccc(-c2ccc(Cl)c(Cl)c2)cc1C1=C(O)[C@H]2CC[C@H](O2)C1=O [Compound A-132],0%
3,CCc1ccc(-c2ccc(Cl)cc2Cl)cc1C1=C(O)[C@]2(C)O[C@@H](CC2COC)C1=O (stereo partly shown) [Compound A-133],0%
4,CCc1ccc(-c2ccc(Cl)c(OC)c2)cc1C1=C(O)C(C)(C)OC(C)(C)C1=O [Compound A-135],0%

# Tested on: Avena fatua (AVEFA)
# Test: as above
# Type: in vivo
# Conditions: 312 h, rate 250 g/ha, evaluated after 13 days, read-out: Pre-emergence activity AVEFA (100=total damage to plant; 0=no damage to plant)
# Method in brief: as §1
row,SMILES,pest or weed control at 250 g/ha
1,CCc1ccc(-c2ccc(Cl)c(Cl)c2)cc1C1=C(O)[C@]2(C)O[C@@H](CC2COC)C1=O (stereo partly shown) [Compound A-130],20%
2,CCc1ccc(-c2ccc(Cl)c(Cl)c2)cc1C1=C(O)[C@H]2CC[C@H](O2)C1=O [Compound A-132],0%
3,CCc1ccc(-c2ccc(Cl)cc2Cl)cc1C1=C(O)[C@]2(C)O[C@@H](CC2COC)C1=O (stereo partly shown) [Compound A-133],70%
4,CCc1ccc(-c2ccc(Cl)c(OC)c2)cc1C1=C(O)C(C)(C)OC(C)(C)C1=O [Compound A-135],100%

# Tested on: Alopecurus myosuroides (ALOMY)
# Test: as above
# Type: in vivo
# Conditions: 312 h, rate 250 g/ha, evaluated after 13 days, read-out: Pre-emergence activity ALOMY (100=total damage to plant; 0=no damage to plant)
# Method in brief: as §1
row,SMILES,pest or weed control at 250 g/ha
1,CCc1ccc(-c2ccc(Cl)c(Cl)c2)cc1C1=C(O)[C@]2(C)O[C@@H](CC2COC)C1=O (stereo partly shown) [Compound A-130],20%
2,CCc1ccc(-c2ccc(Cl)c(Cl)c2)cc1C1=C(O)[C@H]2CC[C@H](O2)C1=O [Compound A-132],0%
3,CCc1ccc(-c2ccc(Cl)cc2Cl)cc1C1=C(O)[C@]2(C)O[C@@H](CC2COC)C1=O (stereo partly shown) [Compound A-133],10%
4,CCc1ccc(-c2ccc(Cl)c(OC)c2)cc1C1=C(O)C(C)(C)OC(C)(C)C1=O [Compound A-135],80%

# Tested on: Setaria faberi (SETFA)
# Test: as above
# Type: in vivo
# Conditions: 312 h, rate 250 g/ha, evaluated after 13 days, read-out: Pre-emergence activity SETFA (100=total damage to plant; 0=no damage to plant)
# Method in brief: as §1
row,SMILES,pest or weed control at 250 g/ha
1,CCc1ccc(-c2ccc(Cl)c(Cl)c2)cc1C1=C(O)[C@]2(C)O[C@@H](CC2COC)C1=O (stereo partly shown) [Compound A-130],90%
2,CCc1ccc(-c2ccc(Cl)c(Cl)c2)cc1C1=C(O)[C@H]2CC[C@H](O2)C1=O [Compound A-132],0%
3,CCc1ccc(-c2ccc(Cl)cc2Cl)cc1C1=C(O)[C@]2(C)O[C@@H](CC2COC)C1=O (stereo partly shown) [Compound A-133],80%
4,CCc1ccc(-c2ccc(Cl)c(OC)c2)cc1C1=C(O)C(C)(C)OC(C)(C)C1=O [Compound A-135],100%

# Tested on: Echinochloa crus-galli (ECHCG)
# Test: as above
# Type: in vivo
# Conditions: 312 h, rate 250 g/ha, evaluated after 13 days, read-out: Pre-emergence activity ECHCG (100=total damage to plant; 0=no damage to plant)
# Method in brief: as §1
row,SMILES,pest or weed control at 250 g/ha
1,CCc1ccc(-c2ccc(Cl)c(Cl)c2)cc1C1=C(O)[C@]2(C)O[C@@H](CC2COC)C1=O (stereo partly shown) [Compound A-130],40%
2,CCc1ccc(-c2ccc(Cl)c(Cl)c2)cc1C1=C(O)[C@H]2CC[C@H](O2)C1=O [Compound A-132],0%
3,CCc1ccc(-c2ccc(Cl)cc2Cl)cc1C1=C(O)[C@]2(C)O[C@@H](CC2COC)C1=O (stereo partly shown) [Compound A-133],0%
4,CCc1ccc(-c2ccc(Cl)c(OC)c2)cc1C1=C(O)C(C)(C)OC(C)(C)C1=O [Compound A-135],100%
